Test results: patent publication US20240131007A1, “METHODS AND COMPOSITIONS FOR PICORNAVIRUS ANTI-VIRAL AGENTS” (University of Connecticut, priority 2022, published 2024)
Entries after “also recorded” stand apart in the source; their conditions may differ. Counter-ions that a name gives are not always drawn. Like-named read-outs stand apart in the source and are kept apart here.

Experiments:
[1] = test system: EV-A71; assay: CPE inhibition assay (Cell Titer Glo) against EV-A71 in Vero cells; type: cell-based, Enterovirus A71; details: for Selectivity Index: CC50/IC50; for anti-viral activity of analogs of Compound T3 (luminescence above 3SD cutoff): single concentration 25 μM; for anti-viral activity (luminescence above 3SD cutoff): single concentration 50 μM; for selectivity index: from IC50 and CC50
[2] = Cytotoxicity assay (Cell Titer Glo); details: African green monkey, CC50 (μM), Vero cells
[3] = target: T1, EV-A71 Δ2C^116-329 (Human enterovirus 71, UniProt Q66478); assay: biochemical; type: biochemical; details: for inhibition of the ATPase function of Δ2C^116-329 (absorbance below 3SD cutoff): single concentration 50 μM
T1 construct: EV-A71 Δ2C (amino acids 116-329) was designed with; made in house; host or cells: E. coli Rosetta 2(DE3) pLysS, pMALc5x vector

[4] = in vitro; details: African green monkey
[5] = target: T2, EV-A71 Δ2C^116-329 (2C ATPase) (Enterovirus A71, UniProt B9VUU3); assay: 2C ATPase inhibition assay (colorimetric malachite green, dose response); type: biochemical
T2 construct: Ni-NTA and SEC purified

[6] = test system: Vero cells; assay: Cytotoxicity assay (Cell Titer Glo); details: for CC50: Vero cells
[7] = target: EV-A71 Δ2C^116-329; details: previously observed; cited from earlier work
[8] = Enterovirus A, EVA71, Table 10, Scaffold 1, EV-A71, Vero cells, read-out: IC50
[9] = Enterovirus A, EVA71, Table 8, virus-induced CPE, EV-A71, Vero cells, read-out: IC50
[10] = Enterovirus A, EVA71, Table 12, Scaffold 3, EV-A71, Vero cells, read-out: IC50
[11] = Enterovirus A, EVA71, EV-A71, Vero cells, read-out: IC50 for inhibition of virus-induced CPE

T1 sequence (Q66478 1227-1440, stated change not applied): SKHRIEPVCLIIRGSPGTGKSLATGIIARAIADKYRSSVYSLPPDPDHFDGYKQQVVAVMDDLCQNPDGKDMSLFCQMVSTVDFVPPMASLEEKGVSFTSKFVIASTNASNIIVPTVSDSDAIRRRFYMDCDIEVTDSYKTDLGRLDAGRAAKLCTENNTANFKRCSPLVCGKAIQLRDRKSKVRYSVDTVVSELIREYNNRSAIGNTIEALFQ
T2 sequence (B9VUU3 1227-1440, stated change not applied): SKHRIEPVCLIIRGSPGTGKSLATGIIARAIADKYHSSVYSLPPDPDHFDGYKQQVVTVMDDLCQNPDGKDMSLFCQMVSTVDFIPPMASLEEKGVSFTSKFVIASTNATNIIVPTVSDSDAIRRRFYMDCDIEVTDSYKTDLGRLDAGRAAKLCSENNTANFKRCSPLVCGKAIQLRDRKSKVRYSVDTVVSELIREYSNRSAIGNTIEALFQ

## O=C(Cc1cccs1)Nc1ccc(-c2nc3ccccc3[nH]2)cc1 [Compound 9, N-[4-(1H-benzimidazol-2-yl)phenyl]-2-(2-thienyl)acetamide]
[1]; [8]
  IC50: 104 µM
[1]; Table 10, Scaffold 1
  Selectivity Index: 3.26
[2]; Table 10, Scaffold 1
  CC50 at 3 days: 338 µM

## O=C(Nc1ccc(-c2nc3ccccc3[nH]2)cc1)c1c(F)c(F)c(F)c(F)c1F [Compound 16, N-[4-(1H-benzimidazol-2-yl)phenyl]-2,3,4,5,6-pentafluorobenzamide]
[1]; [8]
  IC50: > 25 µM
[2]; Table 10, Scaffold 1
  CC50 at 3 days: > 400 µM

## O=C(C=Cc1ccco1)Nc1ccc(-c2nc3ccccc3[nH]2)cc1 [Compound 20, N-[4-(1H-benzimidazol-2-yl)phenyl]-3-(2-furyl)acrylamide]
[1]; [8]
  IC50: 5.41 µM
[1]; Table 10, Scaffold 1
  Selectivity Index: >73.94
[3]
  IC50: 18.1 µM
[2]; Table 10, Scaffold 1
  CC50 at 3 days: > 400 µM

## O=C(CSc1ccc(Cl)cc1)Nc1ccc(-c2nc3ccccc3[nH]2)cc1 [Compound 25, N-[4-(1H-benzimidazol-2-yl)phenyl]-2-[(4-chlorophenyl)thio]acetamide]
[1]; [8]
  IC50: > 25 µM
[2]; Table 10, Scaffold 1
  CC50 at 3 days: 582 µM

## O=C(Nc1ccc(-c2nc3ccccc3[nH]2)cc1)c1ccc(C(=O)Nc2ccc(-c3nc4ccccc4[nH]3)cc2)cc1 [Compound 28, N,N′-bis[4-(1H-benzimidazol-2-yl)phenyl]terephthalamide]
[1]; [8]
  IC50: 41.7 µM
[1]; Table 10, Scaffold 1
  Selectivity Index: >9.6
[3]
  IC50: 0.55 µM
[4]; CC50 (μM)
  CC50 at 3 days: > 400 µM

## Cc1ccc2[nH]c(-c3ccc(NC(=O)Cc4cccs4)cc3)nc2c1 [Compound 35, N-[4-(5-methyl-1H-benzimidazol-2-yl)phenyl]-2-(2-thienyl)acetamide]
[1]; [8]
  IC50: > 25 µM
[2]; Table 10, Scaffold 1
  CC50 at 3 days: > 400 µM

## COc1ccc(C(=O)Nc2ccc(-c3nc4cc(C)ccc4[nH]3)cc2)cc1OC [Compound 37, 3,4-dimethoxy-N-[4-(5-methyl-1H-benzimidazol-2-yl)phenyl]benzamide]
[1]; [8]
  IC50: 69.1 µM
[1]; Table 10, Scaffold 1
  Selectivity Index: >5.79
[3]
  IC50: 20.6 µM
[4]; CC50 (μM)
  CC50 at 3 days: > 400 µM

## Cc1ccc2[nH]c(-c3ccc(NC(=O)c4ccc(Br)o4)cc3)nc2c1 [Compound 40, 5-bromo-N-[4-(5-methyl-1H-benzimidazol-2-yl)phenyl]-2-furamide]
[1]; [8]
  IC50: 81.9 µM
[1]; Table 10, Scaffold 1
  Selectivity Index: >4.89
[3]
  IC50: 37.3 µM
[4]; CC50 (μM)
  CC50 at 3 days: > 400 µM

## Cc1ccc2[nH]c(-c3ccc(NC(=O)c4ccc(C)c(C)c4)cc3)nc2c1 [Compound 43, 3,4-dimethyl-N-[4-(5-methyl-1H-benzimidazol-2-yl)phenyl]benzamide]
[1]; [9]
  IC50: 4.27 µM
[1]; Table 8
  Selectivity Index: 39.86
[1]; Table 10, Scaffold 1
  Selectivity Index: 39.86
[3]
  IC50: 55 µM
[4]; CC50 (μM)
  CC50 at 3 days: 170 µM

## Cc1ccc2[nH]c(-c3ccc(NC(=O)c4cccc(Br)c4)cc3)nc2c1 [Compound 44, 3-bromo-N-[4-(5-methyl-1H-benzimidazol-2-yl)phenyl]benzamide]
[1]; [8]
  IC50: 10.5 µM
[1]; Table 10, Scaffold 1
  Selectivity Index: 45.23
[3]
  IC50: 19 µM
[4]; CC50 (μM)
  CC50 at 3 days: 475 µM

## O=C(Nc1ccc(-c2nc3ccccc3o2)cc1)c1ccc(NC(=O)c2cc3ccccc3o2)cc1 [Compound 46, N-[4-({[4-(1,3-benzoxazol-2-yl)phenyl]amino}carbonyl)phenyl]-1-benzofuran-2-carboxamide]
[1]; [8]
  IC50: 40 µM
[1]; Table 10, Scaffold 1
  Selectivity Index: 34.49
[3]
  IC50: 17.4 µM
[4]; CC50 (μM)
  CC50 at 3 days: 1380 µM

## O=C(Nc1ccc(-c2nc3cc4ccccc4cc3[nH]2)cc1)c1cccc(Br)c1 [Compound 48, 3-bromo-N-[4-(1H-naphtho[2,3-d]imidazol-2-yl)phenyl]benzamide]
[1]; [9]
  IC50: 0.71 µM
[1]; Table 8
  Selectivity Index: 426.06
[1]; Table 11, Scaffold 2
  Selectivity Index: 426.06
[3]
  IC50: 33.1 µM
[4]; CC50 (μM)
  CC50 at 3 days: 302 µM

## O=C(Nc1ccc2[nH]c(-c3ccc(Br)o3)nc2c1)c1ccc([N+](=O)[O-])cc1 [Compound 51, N-[2-(5-bromo-2-furyl)-1H-benzimidazol-5-yl]-4-nitrobenzamide]
[1]; [10]
  IC50: 72.4 µM
[1]; Table 12, Scaffold 3
  Selectivity Index: 1.74
[3]
  IC50: 54.1 µM
[4]; CC50 (μM)
  CC50 at 3 days: 126 µM

## CC(=O)Nc1ccc2[nH]c(-c3ccc(Br)o3)nc2c1 [Compound 52, N-[2-(5-bromo-2-furyl)-1H-benzimidazol-5-yl]acetamide]
[1]; [10]
  IC50: 7.1 µM
[1]; Table 12, Scaffold 3
  Selectivity Index: 1.30
[2]; Table 12, Scaffold 3
  CC50 at 3 days: 9.2 µM

## Cc1ccc(-c2nc3cc(NC(=O)c4cccs4)ccc3[nH]2)o1 [Compound 55, N-[2-(5-methyl-2-furyl)-1H-benzimidazol-5-yl]-2-thiophenecarboxamide]
[1]; [10]
  IC50: > 25 µM
[2]; Table 12, Scaffold 3
  CC50 at 3 days: > 400 µM

## O=C(Nc1ccc2[nH]c(-c3cccs3)nc2c1)c1cccs1 [Compound 56, N-[2-(2-thienyl)-1H-benzimidazol-5-yl]-2-thiophenecarboxamide]
[1]; [10]
  IC50: 20 µM
[1]; Table 12, Scaffold 3
  Selectivity Index: 6.17
[1]; EV-A71, Vero cells
  anti-viral activity of analogs of Compound T3 (luminescence above 3SD cutoff): have activity
[2]; Table 12, Scaffold 3
  CC50 at 3 days: 123 µM

## O=C(Nc1ccc2[nH]c(-c3ccco3)nc2c1)c1cccs1 [Compound 57, N-[2-(2-furyl)-1H-benzimidazol-5-yl]-2-thiophenecarboxamide]
[1]; [9]
  IC50: 2.75 µM
[1]; Table 8
  Selectivity Index: 3.09
[1]; Table 12, Scaffold 3
  Selectivity Index: 3.09
[1]; EV-A71, Vero cells
  anti-viral activity of analogs of Compound T3 (luminescence above 3SD cutoff): have activity
[2]; Table 8
  CC50 at 3 days: 8.5 µM
[2]; Table 12, Scaffold 3
  CC50 at 3 days: 8.5 µM

## Cc1ccc2nc(-c3cccc(NC(=O)c4ccco4)c3)[nH]c2c1 [Compound 63, N-[3-(6-methyl-1H-benzimidazol-2-yl)phenyl]-2-furamide]
[1]; Enterovirus A, EVA71, Table 13, Scaffold 4, EV-A71, Vero cells, read-out: IC50
  IC50: 24.8 µM
[1]; Table 13, Scaffold 4
  Selectivity Index: 5.28
[2]; Table 13, Scaffold 4
  CC50 at 3 days: 131 µM

## OC(COC(c1ccc(F)cc1)c1ccc(F)cc1)Cn1cnc2cc(F)c(F)cc21 (stereo not shown) [Compound 108, 1-[bis(4-fluorophenyl)methoxy]-3-(5,6-difluoro-1H-1,3-benzodiazol-1-yl)propan-2-ol]
[1]; EV-A71, Vero cells
  anti-viral activity (luminescence above 3SD cutoff): did not show activity above the threshold value
[3]
  inhibition of the ATPase function of Δ2C^116-329 (absorbance below 3SD cutoff): inhibited 2C ATPase; also recorded: inhibited the ATPase function
[5]
  IC50: 57.3 µM

## Nc1nc(N)nc(COC(=O)CCc2c(-c3ccc(F)cc3)[nH]c3ccc(F)cc23)n1 [Compound 111, (4,6-diamino-1,3,5-triazin-2-yl)methyl 3-[5-fluoro-2-(4-fluorophenyl)-1H-indol-3-yl]propanoate]
[1]; [11]
  IC50: 44.7 µM
[1]; Enterovirus A, EVA71, Table 7, EV-A71, Vero cells, read-out: IC50
  IC50: 44.7 µM
[1]; Table 7
  Selectivity Index: 9.44
[1]
  selectivity index: 9.44
[1]; EV-A71, Vero cells
  anti-viral activity (luminescence above 3SD cutoff): inhibited EV-A71
[3]
  inhibition of the ATPase function of Δ2C^116-329 (absorbance below 3SD cutoff): inhibited 2C ATPase; also recorded: inhibited the ATPase function
[4]; CC50
  CC50 at 3 days: 422 µM
[4]; CC50 (μM)
  CC50 at 3 days: 422 µM
[5]
  IC50: 7.5 µM

## O=c1nc(C=Cc2cn(Cc3ccccc3Cl)c3ccccc23)cc(C(F)(F)F)[nH]1 [Compound 139, 4-(2-{1-[(2-chlorophenyl)methyl]-1H-indol-3-yl}ethenyl)-6-(trifluoromethyl)-1,2-dihydropyrimidin-2-one]
[1]; EV-A71, Vero cells
  anti-viral activity (luminescence above 3SD cutoff): did not show activity above the threshold value
[3]
  inhibition of the ATPase function of Δ2C^116-329 (absorbance below 3SD cutoff): inhibited 2C ATPase; also recorded: inhibited the ATPase function
[5]
  IC50: 71.3 µM

## Cc1ccc2[nH]c(-c3ccc(NC(=O)c4ccco4)cc3)nc2c1 [Compound T3, N-[4-(5-methyl-1H-benzimidazol-2-yl)phenyl]-2-furamide]
[1]; [11]
  IC50: 2.9 µM
[1]; Enterovirus A, EVA71, Table 6, EV-A71, Vero cells, read-out: IC50
  IC50: 2.9 µM
[1]; Table 6
  Selectivity Index: >68.97
[1]
  selectivity index: > 68.9
[2]; Table 6
  CC50 at 3 days: > 200 µM
[6]; up to 200 μM
  toxicity to Vero cells: no toxicity

## Cc1[nH]c2ccc(Br)cc2c1CCN [Compound T5, [2-(5-bromo-2-methyl-1H-indol-3-yl)ethyl]aminehydrochloride]
[1]; Table 6, EV-A71, Vero cells, read-out: IC50
  IC50: 103 µM
[6]; Table 6
  CC50: 61.6 µM

## Cl.N=C(N)N [GnHCl, Guanidinium hydrochloride, reference compound]
[1]; read-out: IC50 for inhibition of EV-A71
  IC50: 140 µM
[3]; read-out: IC50 for ATPase inhibition
  IC50: 83600 µM
[7]
  IC50 for inhibition of the ATPase activity of 2C: millimolar range

## N-[4-(1H-benzimidazol-2-yl)phenyl]-2-(3-4-phenylthio)acetamide [Compound 22]
[6]; Table 10, Scaffold 1
  CC50: 761 µM

## N-[4-(5-methyl-1H-benzimidazol-2-yl)phenyl]-2-(3-7-phenylthio)acetamide [Compound 42]
[1]; Table 10, Scaffold 1, EV-A71, Vero cells, read-out: IC50
  IC50: 6.99 µM
[6]; Table 10, Scaffold 1
  CC50: 684 µM
